Counter-ions that a name gives are not always drawn. Like-named read-outs stand apart in the source and are kept apart here.
Assays:
human NTCP [1] = biological target: T1, human NTCP (Homo sapiens, UniProt Q14973); test: Screening taurocholate uptake assay (96-well, [14C]taurocholate, 10 µM drug)
T1 sequence (Q14973 1-349): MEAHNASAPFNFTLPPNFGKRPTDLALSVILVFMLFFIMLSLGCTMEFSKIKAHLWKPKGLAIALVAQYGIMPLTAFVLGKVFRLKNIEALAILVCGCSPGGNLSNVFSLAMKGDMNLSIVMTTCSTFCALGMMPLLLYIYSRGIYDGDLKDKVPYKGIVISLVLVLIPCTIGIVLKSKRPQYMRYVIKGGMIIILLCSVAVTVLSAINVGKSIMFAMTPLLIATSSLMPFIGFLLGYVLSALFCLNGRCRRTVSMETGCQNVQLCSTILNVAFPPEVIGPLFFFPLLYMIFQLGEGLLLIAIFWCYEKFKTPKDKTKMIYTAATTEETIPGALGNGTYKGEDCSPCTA

human NTCP [2] = biological target: T1, human NTCP; test: Screening fluorescent competitive Myrcludex B-FITC binding assay (96-well, 10 µM drug)
[3] = Prestwick library screen, taurocholate uptake, 10 µM drug
[4] = ranking score beside the functional and binding assay B-scores of the screen
[5] = Prestwick library screen, Myrcludex B-FITC binding, 10 µM drug
[6] = Prestwick library screen, 10 µM drug, B-score of taurocholate uptake
[7] = combined ranking from functional and binding assay B-scores
[8] = Prestwick library screen, 10 µM drug, B-score of Myrcludex B-FITC binding
[9] = combined ranking from functional and binding screening assays
[10] = screen, 10 µM drug, taurocholate uptake
[11] = screen, 10 µM drug, Myrcludex B-FITC binding

For `CCC(=O)O[C@@H](O[P@](=O)(CCCCc1ccccc1)CC(=O)N1C[C@H](C2CCCCC2)C[C@H]1C(=O)O)C(C)C` [Fosinopril], the B-score functional assay (human NTCP [1]; [3]) was 3.318, the Ranking score (human NTCP [1]; [4]) was 655.924 and the B-score binding assay (human NTCP [2]; [5]) was -0.621.
In the case of `Cc1oncc1C(=O)Nc1ccc(C(F)(F)F)cc1` [Leflunomide], the B-score functional assay (human NTCP [1]; [3]) is reported as 0.376, the Ranking score (human NTCP [1]; [4]) is reported as 727.533 and the B-score binding assay (human NTCP [2]; [5]) is reported as -0.027.
`Nc1ccn([C@H]2CC[C@@H](CO)O2)c(=O)n1` [Zalcitabine] showed a B-score functional assay (human NTCP [1]; [3]) of 1.286, a Ranking score (human NTCP [1]; [4]) of 782.741 and a B-score binding assay (human NTCP [2]; [5]) of -0.087.
For `CCCCOC(=O)c1ccc(N)cc1` [Butamben], the B-score functional assay (human NTCP [1]; [6]) was 0.768, the Ranking score (human NTCP [1]; [7]) was 1050.86 and the B-score binding assay (human NTCP [2]; [8]) was 1.315.
`CN(C)C(=O)Oc1cccc([N+](C)(C)C)c1` [Neostigmine bromide] gave a B-score functional assay (human NTCP [1]; [3]) of -0.02, a Ranking score (human NTCP [1]; [4]) of 703.343 and a B-score binding assay (human NTCP [2]; [5]) of 0.229.
Compound `Nc1ccc(S(=O)(=O)Nc2ccnn2-c2ccccc2)cc1` [Sulfaphenazole] has a B-score functional assay (human NTCP [1]; [6]) of 0.483, a Ranking score (human NTCP [1]; [7]) of 867.854 and a B-score binding assay (human NTCP [2]; [8]) of 0.287.
`C[C@@H](O)[C@H]1C(=O)N2C(C(=O)O)=C(S[C@@H]3CN[C@H](C(=O)N(C)C)C3)[C@H](C)[C@H]12` [Meropenem] was tested, and the B-score functional assay (human NTCP [1]; [6]) was 0.4, the Ranking score (human NTCP [1]; [7]) was 900.139 and the B-score binding assay (human NTCP [2]; [8]) was 0.55.
Compound `CN(Cc1ccc(C(C)(C)C)cc1)Cc1cccc2ccccc12` [Butenafine Hydrochloride] has a B-score functional assay (human NTCP [1]; [6]) of 1.115, a Ranking score (human NTCP [1]; [7]) of 986.495 and a B-score binding assay (human NTCP [2]; [8]) of 0.435.
`CC[N+]1(C)CCCC(OC(=O)C(O)(c2ccccc2)c2ccccc2)C1` (stereo not drawn) [Pipenzolate bromide] showed a B-score functional assay (human NTCP [1]; [6]) of 2.623, a Ranking score (human NTCP [1]; [7]) of 1014.24 and a B-score binding assay (human NTCP [2]; [8]) of 0.291.
In the case of `O=C1NCCN1CCN1CCC(c2cn(-c3ccc(F)cc3)c3ccc(Cl)cc23)CC1` [Sertindole], the B-score functional assay (human NTCP [1]; [6]) is reported as 0.957, the Ranking score (human NTCP [1]; [7]) is reported as 1028.08 and the B-score binding assay (human NTCP [2]; [8]) is reported as 0.84.
`Nc1nc(=S)c2ncn([C@@H]3O[C@H](CO)[C@@H](O)[C@H]3O)c2[nH]1` [Thioguanosine] was tested, and the Ranking score (human NTCP [1]; [9]) was 366.332, the B-score functional assay (human NTCP [1]; [10]) was -0.426 and the B-score binding assay (human NTCP [2]; [11]) was -0.655.
In the case of `NC[C@@H]1O[C@H](O[C@H]2[C@@H](O)[C@H](O[C@@H]3[C@@H](O)[C@H](N)C[C@H](N)[C@H]3O[C@H]3O[C@H](CO)[C@@H](O)[C@H](O)[C@H]3N)O[C@@H]2CO)[C@H](N)[C@@H](O)[C@@H]1O` [Paromomycin sulfate], the B-score functional assay (human NTCP [1]; [6]) is reported as 0.247, the Ranking score (human NTCP [1]; [7]) is reported as 976.576 and the B-score binding assay (human NTCP [2]; [8]) is reported as 1.613.
`CC1=NS(=O)(=O)c2cc(Cl)ccc2N1` [Diazoxide] gave a Ranking score (human NTCP [1]; [9]) of 331.971, a B-score functional assay (human NTCP [1]; [10]) of -1.121 and a B-score binding assay (human NTCP [2]; [11]) of -0.26.
Work on `COC(=O)CCc1ccc(OCC(O)CNC(C)C)cc1` (stereo not drawn) [Esmolol hydrochloride] yielded a B-score functional assay (human NTCP [1]; [6]) of 0.736, a Ranking score (human NTCP [1]; [7]) of 1025.92 and a B-score binding assay (human NTCP [2]; [8]) of 1.099.
`C/C(=C(/CCO)SSCC1CCCO1)N(C=O)Cc1cnc(C)nc1N.Cl` (stereo not drawn) [Fursultiamine Hydrochloride] showed a B-score functional assay (human NTCP [1]) of 1.116, a Ranking score (human NTCP [1]) of 897.109 and a B-score binding assay (human NTCP [2]) of 0.087.
`O=C1O[C@H]([C@@H](O)CO)C(O)=C1O` [Ascorbic acid] gave a Ranking score (human NTCP [1]; [9]) of 365.334, a B-score functional assay (human NTCP [1]; [10]) of -1.672 and a B-score binding assay (human NTCP [2]; [11]) of 0.271.
Compound `C[C@]12CC[C@@H](O)C[C@@H]1CC[C@@H]1[C@@H]2CC[C@]2(C)C(=O)CC[C@@H]12` [Androsterone] has a B-score functional assay (human NTCP [1]) of 0.451, a Ranking score (human NTCP [1]) of 969.912 and a B-score binding assay (human NTCP [2]) of 1.069.
For `NS(=O)(=O)c1cc2c(cc1C(F)(F)F)NCNS2(=O)=O` [Hydroflumethiazide], the B-score functional assay (human NTCP [1]; [6]) was 0.664, the Ranking score (human NTCP [1]; [7]) was 856.507 and the B-score binding assay (human NTCP [2]; [8]) was 0.137.
`CC(c1cc2ccccc2s1)N(O)C(N)=O` (stereo not drawn) [Zileuton] showed a B-score functional assay (human NTCP [1]; [3]) of -0.271, a Ranking score (human NTCP [1]; [4]) of 706.817 and a B-score binding assay (human NTCP [2]; [5]) of 1.294.
For `C[C@]12CC[C@@H]3c4ccc(O)cc4CC[C@H]3[C@@H]1CCC2=O` [Estrone], the B-score functional assay (human NTCP [1]; [6]) was 0.06, the Ranking score (human NTCP [1]; [7]) was 855.9 and the B-score binding assay (human NTCP [2]; [8]) was 0.944.
Compound `NC[C@@H]1O[C@H](O[C@H]2[C@@H](O)[C@H](O[C@@H]3[C@@H](O)[C@H](N)C[C@H](N)[C@H]3O[C@H]3O[C@H](CN)[C@@H](O)[C@H](O)[C@H]3N)O[C@@H]2CO)[C@H](N)[C@@H](O)[C@@H]1O.O=S(=O)(O)O` [Neomycin sulfate] has a B-score functional assay (human NTCP [1]; [6]) of 0.497, a Ranking score (human NTCP [1]; [7]) of 912.995 and a B-score binding assay (human NTCP [2]; [8]) of 0.524.
Compound `CCCCN(CCCC)CCC(O)c1cc2c(Cl)cc(Cl)cc2c2cc(C(F)(F)F)ccc12` (stereo not drawn) [Halofantrine hydrochloride] has a Ranking score (human NTCP [1]; [9]) of 393.07, a B-score functional assay (human NTCP [1]; [10]) of 0.058 and a B-score binding assay (human NTCP [2]; [11]) of -1.143.
